The text below walks through data of publication PMC9436958, “The synthesis of novel thioderivative chalcones and their influence on NF-κB, STAT3 and NRF2 signaling pathways in colorectal cancer cells” (Scientific Reports, 2022).

Common to all, as to format: cell-based
Data set [1] concerns DLD-1 cells. Nature of the data set: MTT viability assay, DLD-1 cells. As to conditions: Homo sapiens, range 0.5–100 µM, read-out: IC50, cytotoxicity. As for the experimental part: (§1) The DLD-1 and HCT116 colorectal carcinoma cell lines were purchased from ECACC. The HaCaT cell line of spontaneously immortalized keratinocytes was purchased from Cell Lines Service (Germany). The cells were cultured in Dulbecco’s Modified Eagle’s Medium (DMEM, Sigma-Aldrich, USA) with the addition of 10% FBS (EURx, Poland) and 1% antibiotic solution (penicillin and streptomycin) (Sigma-Aldrich, USA) at 37 °C in an atmosphere with 95% humidity and 5% CO2.
(§2) The effect of the tested compounds on the viability of DLD-1, HCT116 and HaCaT cells was assessed by the MTT assay according to the standard protocol.
For orientation: Formazan colour is commonly taken as a measure of viable cells.

Data set [2] concerns HCT116 cells. Nature of the data set: MTT viability assay, HCT116 cells. As to conditions: Homo sapiens, HCT-116, range 0.5–100 µM, read-out: IC50, cytotoxicity. As for the experimental part: as §1, §2
Data set [3] can be described thus: MTT viability assay, normal HaCaT cells. As to conditions: HaCaT cells (spontaneously immortalized keratinocytes), normal human HaCaT cells, read-out: IC50, cytotoxicity. As for the experimental part: as §1, §2
The next data set deals with IKKα/β. Nature of the data set: Western blot, IKKα/β protein in cytosolic fraction. As to conditions: HCT116 cells; 4 at 1 μM. As for the experimental part:
(§3) Cytosolic and nuclear extracts were prepared using a Nuclear/Cytosol Fractionation Kit (BioVision Research, USA). Cytosolic extracts (for NF-κBp65, NF-κBp50, COX-2, iNOS, STAT3, c-Myc, Bcl-xl, Nrf2, SOD, GSTP, EGFR, Akt, p-Akt, Keap1, IKKα/β and β-actin) or nuclear extracts (for NF-κBp65, NF-κBp50, STAT3, p-STAT3, Nrf2, p-Nrf2 and lamin) were separated on 7.5%, 10% or 12% SDS–PAGE slab gels. Then, the proteins were transferred to a nitrocellulose Immobilon-P membrane. After blocking for 2 h with 10% skimmed milk, proteins were incubated with primary antibodies against NF-κBp65, NF-κBp50, COX-2, iNOS, STAT3, p-STAT3, c-Myc, Bcl-xl, Nrf2, p-Nrf2, SOD, GSTP, EGFR, Akt, p-Akt, Keap1, IKKα/β, β-actin, and lamin. Alkaline phosphatase (AP)-labeled anti-rabbit IgG, anti-goat IgG, and anti-mouse IgG secondary antibodies (Bio-Rad Laboratories, USA), as well as horseradish peroxidase (HRP)-conjugated anti-mouse IgG (Boster Bio, USA) secondary antibodies were used in the staining reaction. Bands were visualized by the AP Conjugate Substrate Kit NBT/BCIP or the chemiluminescent HRP substrate of the Clarity ECL Kit (Bio–Rad Laboratories, USA). The amount of immunoreactive product in each lane was determined using a ChemiDoc Imaging System (Bio–Rad Laboratories, USA). Values were calculated as relative absorbance units (RQ) per mg of protein and expressed as a percentage of the control.

Data set [4] deals with STAT3. Nature of the data set: Transcription factor ELISA, STAT3 binding to DNA. As to conditions: 2, 5 at 5 μM, 4 at 1 μM; for binding of STAT3 to DNA: HCT116 cells; for decrease in the binding of STAT3 to DNA: nuclear fraction of DLD-1 cells. As for the experimental part: (§4) To estimate NF-ΚB (p50 and p65 subunits) STAT3 and Nrf2 activation, enzymatic immunoassays with the Transcription Factor ELISA Kit (TransAM™NF-κB, TransAM™STAT3/TransAM™Nrf2, Active Motif, Carlsbad CA, USA) were used following the manufacturer’s protocol. Briefly, proper consensus-site double-strand oligonucleotides (NF-κB—5′-GGGACTTTCC-3′; STAT3-5’—TTCCCGGAA-3’; Nrf2-5ʹ—[…]-3ʹ) were immobilized on an ELISA plate and incubated for one hour with the nuclear extracts. The activated subunits bound to DNA were recognized with a specific primary antibody and detected with an HRP-conjugated secondary antibody. The number of subunits was determined by spectrophotometry at λ = 450 nm. The number of p50, and p65 subunits, STAT3, as well as the amount of Nrf2 contained in the DNA-binding complex, corresponded to the activated NF-κB, STAT3, or Nrf2 transcription factors.
On the technique in general: ELISA stands for enzyme-linked immunosorbent assay.

Data set [5] deals with STAT3. The data set is described as follows: qRT-PCR, STAT3 mRNA. As to conditions: DLD-1 cells; 2, 5 at 5 μM, 4 at 1 μM. As for the experimental part: (§5) Total RNA from cells was isolated with the GeneMatrix Universal DNA/RNA/Protein Purification Kit (EurX, Poland). For the qRT-PCR analyses, the Maxima SYBR Green I/ROX qPCR Master Mix (2×) (Thermo Fisher Scientific, USA) and the thermal cycler LightCycler (Roche, Germany) were used. The protocol started with 5 min of enzyme activation at 95 °C, followed by 40–50 cycles at 95 °C for 15 s, 56 °C for 20 s, 72 °C for 40 s, and final elongation at 72 °C for 5 min. Melting curve analysis was used for amplicon verification. The expression levels of TATA-box-binding protein (TBP) and porphobilinogen deaminase (PBGD) were used to normalize the data. The Pfaffl comparative method was used to calculate fold change. Primers were designed using Beacon Designer software (the sequences of primers used to analyze genes are listed in Table 2 of the supplementary materials).

The next data set deals with Bcl-xl. Nature of the data set: Bcl-xl expression (qRT-PCR mRNA, Western blot protein). As to conditions: HCT116 cells, 5 at 5 μM; for Bcl-xl transcription: 4 at 1 μM. As for the experimental part: as §3, §5
For orientation: Real-time PCR tracks product formation cycle by cycle.

The subject of another data set is Nrf2. The data set is described as follows: Transcription factor ELISA, Nrf2 binding to DNA. As for the experimental part: as §4
Another data set concerns EGFR. The data set is described as follows: Western blot, EGFR protein in cytosolic fraction. As to conditions: 4 at 1 μM. As for the experimental part: as §3
A further data set concerns p-Akt. Nature of the data set: Western blot, p-Akt (Ser 473) protein in cytosolic fraction. As to conditions: 2, 5 at 5 μM, 4 at 1 μM. As for the experimental part: as §3
In data set [6] the test system is DLD-1 cells. Nature of the data set: Apoptosis, Annexin V / 7-AAD flow cytometry, DLD-1. As to conditions: 48 h; for induction of apoptosis: mainly early and total apoptotic populations enriched. As for the experimental part:
(§6) Apoptosis was assessed by the detection of phosphatidylserine externalization based on Annexin V staining combined with fluorescent DNA intercalator 7-Aminoactinomycin D (7-AAD) what allowed for the discrimination between early and late apoptotic cells. The analysis was performed by flow cytometry using the Muse Annexin V & Dead Cell Kit (Luminex, USA) and the Muse Cell Analyzer (Merck, Germany), according to the manufacturer’s protocol. Cells were seeded (2 × 10^5 cells per well) in six-well plates and on the following day the analyzed compounds were added. Topotecan (Sigma-Aldrich, USA) was used as a positive control of apoptosis induction. After 48 h cells were collected by trypsinization, stained and after 20 min incubation at room temperature in the dark analyzed by flow cytometry. Three independent experiments were performed. Data were analyzed by Muse 1.5 Analysis Software (Merck, Germany).

Data set [7] concerns HCT116 cells. The data set is described as follows: Apoptosis, Annexin V / 7-AAD flow cytometry, HCT116. As to conditions: 48 h; for induction of apoptosis: increase of early, late and total apoptosis. As for the experimental part:
as §6

[8] abbreviates: HCT116 cells, 4 at 1 μM, 2, 5, 6, 7 at 5 μM.
The mark [9] stands for this setting: doubled concentration: 4 at 2 μM, 5 at 10 μM.

`COc1cc(C(=O)/C=C/c2cccc(SC)c2)cc(Br)c1OC` [chalcone 4]: the IC50 – broadly, the concentration that gives 50% inhibition – with DLD-1 cells [1] worked out at 2 µM; in the data set on HCT116 cells [2], 20 µM; in data set [3], 3 µM. Also, the “IKKα/β, cytosolic fraction” value with IKKα/β was “inactivation”. The “binding of STAT3 to DNA” value with STAT3 [4] is “decreased the binding of STAT3 to DNA”. The “decrease in the binding of STAT3 to DNA” value in the data set with STAT3 [4] is on record as 30%. Further, the “STAT3 gene expression (mRNA)” value in the data set on STAT3 [5] is recorded as “decreased”. In the data set with Bcl-xl, the Bcl-xl transcription entry is “decreased Bcl-xl transcription”. In addition, in the data set with Nrf2 (setting [8]), the “Nrf2 binding to a specific nucleotide sequence (ELISA)” value is “statistically significant increase”. Also, the “level of EGFR” value in the data set with EGFR (DLD-1 cells, 2, 5 at 5 μM) is “significantly decreased the level of EGFR”; in the data set on EGFR (HCT116 cells) it was “significantly decreased the level of EGFR”. Moreover, the “phosphorylation of p-Akt (Ser 473)” value in the data set on p-Akt (DLD-1 cells) and with p-Akt (HCT116 cells) was “significantly reduced phosphorylation of p-Akt” in each case. In addition, the induction of apoptosis entry in the data set with DLD-1 cells [6] and in the data set on HCT116 cells [7] was “able to induce apoptosis” throughout. Also, in the data set with HCT116 cells [7] (setting [9]), the “late and total apoptosis compared with BAY 11-7082 (5 µM)” value is “higher percentage of late and total apoptosis than BAY 11-7082”.

Turning to `COc1cc(/C=C/C(=O)c2cc(Br)c(SC)c(OC)c2)ccc1SC` [chalcone 5], the IC50 came out at 11 µM with DLD-1 cells [1], 13 µM with HCT116 cells [2] and 14 µM in data set [3]. In addition, in the data set on STAT3 [4], the “binding of STAT3 to DNA” value is recorded as “decreased the binding of STAT3 to DNA”. The “decrease in the binding of STAT3 to DNA” value with STAT3 [4] came to 20%. For the same compound, the “STAT3 gene expression (mRNA)” value in the data set on STAT3 [5] is “decreased”. The Bcl-xl transcription result in the data set on Bcl-xl is reported as “decreased Bcl-xl transcription”. For the same compound, in the data set on Bcl-xl, the Bcl-xl protein level entry was “correlated with Bcl-xl protein level”. Also, the “Nrf2 binding to a specific nucleotide sequence (ELISA)” value in the data set with Nrf2 (DLD-1 cells, 1 at 1 μM, 3, 5, 7, 8 at 5 μM) is on record as “statistically significant increase”; in the data set on Nrf2 (setting [8]) it was “statistically significant increase”. Moreover, the “level of EGFR” value with EGFR (DLD-1 cells, 2, 5 at 5 μM) is given as “significantly decreased the level of EGFR”. In addition, the “phosphorylation of p-Akt (Ser 473)” value in the data set with p-Akt (DLD-1 cells) and in the data set with p-Akt (HCT116 cells) was “significantly reduced phosphorylation of p-Akt” throughout. Moreover, the “total apoptotic cells compared with BAY 11-7082 (5 µM)” value with DLD-1 cells [6] (5 in higher concentration) is “comparable effect”. For the same compound, the induction of apoptosis entry with DLD-1 cells [6] and with HCT116 cells [7] was “able to induce apoptosis” in each case. Further, the “late and total apoptosis compared with BAY 11-7082 (5 µM)” value was “higher percentage of late and total apoptosis than BAY 11-7082” with HCT116 cells [7] (setting [9]); “higher percentage of late and total apoptosis than BAY 11-7082” with HCT116 cells [7] (standard concentration: 5 at 5 μM).
